According to PubChem BioAssay AID330 (DTP/NCI, 2004):
“And” between values parts separate entries of the source, which are not always exact repeats. Identical values can stand only once. Inconclusive results and toxic doses are left out.

Tested on: P388 leukemia ip, CD2F1 mice, survival T/C
Assay: NCI In Vivo Anticancer Drug Screen. Data for tumor model P388 Leukemia (intraperitoneal) in CD2F1 (CDF1) mice
Settings: endpoint: median survival time, higher = longer survival
Outline: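 Mice carrying the transplanted tumor received test compound or vehicle. Survival was recorded in each group, and the value is the treated-group measurement divided by that of the vehicle-treated control group.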

[1] = dose: 50.0 mg/kg/injection, schedule: Q01DX005 (ip), vehicle: saline with Tween-80
[2] = dose: 100.0 mg/kg/injection, schedule: Q01DX005 (ip), vehicle: saline with Tween-80
[3] = dose: 200.0 mg/kg/injection, schedule: Q01DX005 (ip), vehicle: saline with Tween-80
[4] = dose: 6.25 mg/kg/injection, schedule: Q01DX009 (ip), vehicle: Klucel (hydroxypropylcellulose) (HPC)
[5] = dose: 25.0 mg/kg/injection, schedule: Q01DX009 (ip), vehicle: Klucel (hydroxypropylcellulose) (HPC)
[6] = dose: 50.0 mg/kg/injection, schedule: Q01DX009 (ip), vehicle: Klucel (hydroxypropylcellulose) (HPC)
[7] = dose: 100.0 mg/kg/injection, schedule: Q01DX009 (ip), vehicle: Klucel (hydroxypropylcellulose) (HPC)
[8] = dose: 200.0 mg/kg/injection, schedule: Q01DX009 (ip), vehicle: Klucel (hydroxypropylcellulose) (HPC)
[9] = dose: 25.0 mg/kg/injection, schedule: Q01DX009 (ip), vehicle: saline

CC1=Nc2ccccc2N(C)/C1=C/C1=CC(=O)c2ccccc2C1=O
T/C (dose: 100.0 mg/kg/injection, schedule: Q04DX003 (ip), vehicle: saline with Tween-80): 108 % of control | T/C (dose: 200.0 mg/kg/injection, schedule: Q04DX003 (ip), vehicle: saline with Tween-80): 117 % of control

Cc1cc(NC(=O)c2ccc(NC(=O)c3ccc(N)cc3)cc2)ccc1N=Nc1ccc2c(O)c(N=Nc3ccc4cc(S(=O)(=O)O)ccc4c3)c(S(=O)(=O)O)cc2c1
T/C [1]: 94 % of control | T/C [2]: 103 % of control | T/C [3]: 94 % of control

COc1ccc(C(CC(=O)O)c2cc3c(cc2OC)OCO3)cc1 (stereo not given)
T/C (dose: 50.0 mg/kg/injection, schedule: Q01DX005 (ip), vehicle: distilled water + Tween-80): 94 % of control | T/C (dose: 100.0 mg/kg/injection, schedule: Q01DX005 (ip), vehicle: distilled water + Tween-80): 96 % of control | T/C (dose: 200.0 mg/kg/injection, schedule: Q01DX005 (ip), vehicle: distilled water + Tween-80): 90 % of control

CCC[CH2][Sn]([Cl])([CH2]CCC)[S]C(=S)NCCNC(=S)[S][Sn]([Cl])([CH2]CCC)[CH2]CCC
T/C (dose: 0.78 mg/kg/injection, schedule: Q01DX009 (ip), vehicle: Klucel (hydroxypropylcellulose) (HPC)): 93 % of control | T/C (dose: 1.56 mg/kg/injection, schedule: Q01DX009 (ip), vehicle: Klucel (hydroxypropylcellulose) (HPC)): 98 % of control

NCCNc1ccc(NCCN)c2c1C(=O)c1ccccc1C2=O
T/C (dose: 0.78 mg/kg/injection, schedule: Q01DX009 (ip), vehicle: distilled water + alcohol): 150 % of control | T/C (dose: 2.0 mg/kg/injection, schedule: Q01DX009 (ip), vehicle: acid diluted with saline): 185 % of control | T/C (dose: 3.13 mg/kg/injection, schedule: Q01DX009 (ip), vehicle: distilled water + alcohol): 107 % of control | T/C (dose: 4.0 mg/kg/injection, schedule: Q01DX009 (ip), vehicle: acid diluted with saline): 194 % of control | T/C (dose: 6.25 mg/kg/injection, schedule: Q01DX009 (ip), vehicle: distilled water + alcohol): 159 % of control | T/C (dose: 8.0 mg/kg/injection, schedule: Q01DX009 (ip), vehicle: acid diluted with saline): 203 % of control | T/C (dose: 12.5 mg/kg/injection, schedule: Q01DX009 (ip), vehicle: distilled water + alcohol): 174 % of control | T/C (dose: 16.0 mg/kg/injection, schedule: Q01DX009 (ip), vehicle: acid diluted with saline): 243 % of control | T/C (dose: 25.0 mg/kg/injection, schedule: Q01DX009 (ip), vehicle: distilled water + alcohol): 215 % of control | T/C (dose: 25.0 mg/kg/injection, schedule: Q01DX009 (ip), vehicle: other): 158 % of control

C/C=C1/C[N+]2(C)CCC34c5ccccc5NC32C(O)CC1C4(CO)C(=O)OC (stereo not given)
T/C (dose: 2.0 mg/kg/injection, schedule: Q01DX009 (ip), vehicle: saline): 109 % of control | T/C (dose: 4.0 mg/kg/injection, schedule: Q01DX009 (ip), vehicle: saline): 106 % of control | T/C (dose: 8.0 mg/kg/injection, schedule: Q01DX009 (ip), vehicle: saline): 100 % of control | T/C (dose: 16.0 mg/kg/injection, schedule: Q01DX009 (ip), vehicle: saline): 106 % of control

Cc1cc2c(=O)cc(-c3ccc([N+](=O)[O-])cc3)oc2c(C#N)c1C
T/C (dose: 60.0 mg/kg/injection, schedule: Q01DX005 (ip), vehicle: Klucel (hydroxypropylcellulose) (HPC)): 92 % of control | T/C (dose: 120.0 mg/kg/injection, schedule: Q01DX005 (ip), vehicle: Klucel (hydroxypropylcellulose) (HPC)): 94 % of control | T/C (dose: 240.0 mg/kg/injection, schedule: Q01DX005 (ip), vehicle: Klucel (hydroxypropylcellulose) (HPC)): 87 % of control

COc1cc2c(c(OC)c1OC)-c1ccc(OC)c(=O)cc1CC=C2
T/C (dose: 1.25 mg/kg/injection, schedule: Q01DX009 (ip), vehicle: Klucel (hydroxypropylcellulose) (HPC)): 124 % of control | T/C (dose: 2.5 mg/kg/injection, schedule: Q01DX009 (ip), vehicle: Klucel (hydroxypropylcellulose) (HPC)): 119 % of control and 120 % of control | T/C (dose: 5.0 mg/kg/injection, schedule: Q01DX009 (ip), vehicle: Klucel (hydroxypropylcellulose) (HPC)): 100 % of control | T/C (dose: 10.0 mg/kg/injection, schedule: Q01DX009 (ip), vehicle: Klucel (hydroxypropylcellulose) (HPC)): 170 % of control

Cc1ccc(NC(=O)Oc2cc(C)c(I)cc2C)cc1Cl
T/C (dose: 50.0 mg/kg/injection, schedule: Q01DX009 (ip), vehicle: saline with Tween-80): 112 % of control | T/C (dose: 100.0 mg/kg/injection, schedule: Q01DX009 (ip), vehicle: saline with Tween-80): 112 % of control | T/C (dose: 200.0 mg/kg/injection, schedule: Q01DX009 (ip), vehicle: saline with Tween-80): 95 % of control

CC(=O)OC(CC(=O)CC(O)(C(F)(F)F)C(F)(F)F)(C(F)(F)F)C(F)(F)F
T/C (dose: 6.25 mg/kg/injection, schedule: Q04DX003 (ip), vehicle: saline): 104 % of control | T/C (dose: 12.5 mg/kg/injection, schedule: Q04DX003 (ip), vehicle: saline): 90 % of control

CC1CC2(OC2C)C(=O)OC2CCN(C)C/C=C(/COC(=O)C1(C)O)C2=O (stereo not given)
T/C (dose: 3.12 mg/kg/injection, schedule: Q01DX009 (ip), vehicle: Klucel (hydroxypropylcellulose) (HPC)): 105 % of control | T/C [4]: 99 % of control | T/C (dose: 12.5 mg/kg/injection, schedule: Q01DX009 (ip), vehicle: Klucel (hydroxypropylcellulose) (HPC)): 103 % of control | T/C [5]: 99 % of control | T/C (dose: 40.0 mg/kg/injection, schedule: Q01DX009 (ip), vehicle: Klucel (hydroxypropylcellulose) (HPC)): 110 % of control | T/C (dose: 50.0 mg/kg/injection, schedule: Q04DX002 (ip), vehicle: saline): 108 % of control | T/C (dose: 80.0 mg/kg/injection, schedule: Q01DX009 (ip), vehicle: Klucel (hydroxypropylcellulose) (HPC)): 110 % of control | T/C (dose: 100.0 mg/kg/injection, schedule: Q04DX002 (ip), vehicle: saline): 101 % of control | T/C (dose: 160.0 mg/kg/injection, schedule: Q01DX009 (ip), vehicle: Klucel (hydroxypropylcellulose) (HPC)): 100 % of control | T/C (dose: 200.0 mg/kg/injection, schedule: Q04DX002 (ip), vehicle: saline): 106 % of control

CCC(C)c1ccc(S(=O)(=O)Nc2cc(Cl)c([N+](=O)[O-])cc2O)cc1 (stereo not given)
T/C [6]: 104 % of control | T/C [7]: 100 % of control | T/C [8]: 102 % of control

CNC1=CC(=O)c2c(c3cc(O)ccc3n2C)C1=O
T/C (dose: 12.5 mg/kg/injection, schedule: Q01DX009 (ip), vehicle: saline): 103 % of control | T/C [9]: 103 % of control | T/C (dose: 50.0 mg/kg/injection, schedule: Q01DX009 (ip), vehicle: saline): 103 % of control and 87 % of control | T/C (dose: 200.0 mg/kg/injection, schedule: Q01DX009 (ip), vehicle: saline): 104 % of control

Cn1c(-c2ccccc2)nc2ccccc2c1=O
T/C (dose: 6.25 mg/kg/injection, schedule: Q01DX009 (ip), vehicle: saline with Tween-80): 95 % of control | T/C (dose: 12.5 mg/kg/injection, schedule: Q01DX009 (ip), vehicle: saline with Tween-80): 101 % of control | T/C (dose: 25.0 mg/kg/injection, schedule: Q01DX009 (ip), vehicle: saline with Tween-80): 101 % of control

COc1cc(/C=N/NC(=O)CN(C)C)cc(OC)c1N(CCCl)CCCl
T/C [4]: 116 % of control | T/C [5]: 152 % of control | T/C [6]: 186 % of control and 189 % of control | T/C [7]: 93 % of control

CCOC(=O)c1c(C)n(O)c2ccc(Cl)cc2c1=O
T/C [6]: 100 % of control | T/C [7]: 102 % of control | T/C [8]: 104 % of control

CNC(=O)c1ccccc1C1(O)c2ccccc2CCc2ccccc21
T/C [1]: 94 % of control | T/C [2]: 93 % of control | T/C [3]: 90 % of control

CCOC(=O)CC(=O)c1sc(Nc2ccccc2)c(C(N)=O)c1N
T/C [1]: 100 % of control | T/C [2]: 94 % of control | T/C [3]: 94 % of control

CC1(C)C2CCC1(C)C(O)C2N (stereo not given)
T/C (dose: 30.0 mg/kg/injection, schedule: Q01DX005 (ip), vehicle: saline with Tween-80): 93 % of control | T/C (dose: 60.0 mg/kg/injection, schedule: Q01DX005 (ip), vehicle: saline with Tween-80): 94 % of control and 95 % of control

N=[N+]=CC(=O)OCC(N)C(=O)O (stereo not given)
T/C (dose: 2.3 mg/kg/injection, schedule: Q01DX009 (ip), vehicle: water): 118 % of control | T/C (dose: 6.25 mg/kg/injection, schedule: Q04DX003 (ip), vehicle: water): 120 % of control | T/C (dose: 18.8 mg/kg/injection, schedule: Q01DX009 (ip), vehicle: water): 86 % of control and 91 % of control | T/C (dose: 20.0 mg/kg/injection, schedule: Q01DX009 (ip), vehicle: saline): 169 % of control | T/C [9]: 153 % of control | T/C (dose: 25.0 mg/kg/injection, schedule: Q04DX003 (ip), vehicle: water): 157 % of control | T/C (dose: 40.0 mg/kg/injection, schedule: Q01DX009 (ip), vehicle: saline): 107 % of control and 121 % of control | T/C (dose: 41.7 mg/kg/injection, schedule: Q01DX009 (ip), vehicle: saline): 166 % of control | T/C (dose: 50.0 mg/kg/injection, schedule: Q04DX003 (ip), vehicle: water): 111 % of control
